Results: ChEMBL document CHEMBL3734665, “Design, synthesis and evaluation of antiestrogen and histone deacetylase inhibitor molecular hybrids” (Bioorg Med Chem, 2015)

Columns and labels:
[1] = system: MCF7; experiment: Antiproliferative activity against human MCF7 cells treated for 48 hrs followed by refreshed every 96 hrs measured on day 10 by Lowry assay; type: functional, cell-based
[2] = molecular target: Histone deacetylase 3 (Homo sapiens, UniProt O15379); experiment: Inhibition of human recombinant HDAC3 using Boc-Lys(Ac)-AMC as substrate after 30 mins by fluorescence assay
Sequence of Histone deacetylase 3 (O15379 whole entry, the tested form may be a part): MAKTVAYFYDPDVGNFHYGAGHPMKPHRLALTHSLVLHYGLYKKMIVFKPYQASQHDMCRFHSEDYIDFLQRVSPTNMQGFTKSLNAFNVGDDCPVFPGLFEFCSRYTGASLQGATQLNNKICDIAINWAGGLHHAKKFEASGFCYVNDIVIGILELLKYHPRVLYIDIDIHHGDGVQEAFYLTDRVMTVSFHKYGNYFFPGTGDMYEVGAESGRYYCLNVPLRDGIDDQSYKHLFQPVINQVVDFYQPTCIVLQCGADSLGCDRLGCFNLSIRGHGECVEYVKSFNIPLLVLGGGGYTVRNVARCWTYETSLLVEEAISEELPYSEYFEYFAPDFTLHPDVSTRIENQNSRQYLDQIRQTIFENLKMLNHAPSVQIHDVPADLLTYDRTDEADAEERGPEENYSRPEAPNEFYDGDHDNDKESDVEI

[3] = molecular target: T1, Estrogen receptor (Homo sapiens) (UniProt P03372); experiment: (§1) Antagonist activity at luciferase-fused ERalpha in human HEK293 cells expressing eYFP assessed as reduction of E2-induced estrogenic activity after 2 hrs by BRET assay; type: cell-based
T1 sequence (whole entry): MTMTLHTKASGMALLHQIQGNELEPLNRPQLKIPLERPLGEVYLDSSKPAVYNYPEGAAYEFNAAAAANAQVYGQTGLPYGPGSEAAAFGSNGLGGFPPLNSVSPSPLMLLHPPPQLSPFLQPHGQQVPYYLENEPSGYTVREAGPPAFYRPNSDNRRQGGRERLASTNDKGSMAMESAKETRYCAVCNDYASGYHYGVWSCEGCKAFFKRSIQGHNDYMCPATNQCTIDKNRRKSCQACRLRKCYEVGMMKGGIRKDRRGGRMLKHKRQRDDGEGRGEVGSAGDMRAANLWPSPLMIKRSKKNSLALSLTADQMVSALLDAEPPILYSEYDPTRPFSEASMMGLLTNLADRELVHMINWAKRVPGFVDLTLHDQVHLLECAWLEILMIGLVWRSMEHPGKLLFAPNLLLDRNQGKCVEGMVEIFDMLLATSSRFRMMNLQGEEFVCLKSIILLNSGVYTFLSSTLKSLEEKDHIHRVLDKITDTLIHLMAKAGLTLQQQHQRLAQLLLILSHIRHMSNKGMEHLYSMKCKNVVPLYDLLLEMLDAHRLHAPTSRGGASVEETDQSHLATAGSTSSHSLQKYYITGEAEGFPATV

[4] = molecular target: T2, Estrogen receptor (Homo sapiens, UniProt P03372); experiment: as §1; type: cell-based
T2 sequence (P03372 whole entry): T1 sequence (whole entry)

[5] = molecular target: T3, Protein deacetylase HDAC6 (Homo sapiens, UniProt Q9UBN7); experiment: Inhibition of human recombinant HDAC6 using Boc-Lys(Ac)-AMC as substrate after 30 mins by fluorescence assay
T3 sequence (Q9UBN7 whole entry): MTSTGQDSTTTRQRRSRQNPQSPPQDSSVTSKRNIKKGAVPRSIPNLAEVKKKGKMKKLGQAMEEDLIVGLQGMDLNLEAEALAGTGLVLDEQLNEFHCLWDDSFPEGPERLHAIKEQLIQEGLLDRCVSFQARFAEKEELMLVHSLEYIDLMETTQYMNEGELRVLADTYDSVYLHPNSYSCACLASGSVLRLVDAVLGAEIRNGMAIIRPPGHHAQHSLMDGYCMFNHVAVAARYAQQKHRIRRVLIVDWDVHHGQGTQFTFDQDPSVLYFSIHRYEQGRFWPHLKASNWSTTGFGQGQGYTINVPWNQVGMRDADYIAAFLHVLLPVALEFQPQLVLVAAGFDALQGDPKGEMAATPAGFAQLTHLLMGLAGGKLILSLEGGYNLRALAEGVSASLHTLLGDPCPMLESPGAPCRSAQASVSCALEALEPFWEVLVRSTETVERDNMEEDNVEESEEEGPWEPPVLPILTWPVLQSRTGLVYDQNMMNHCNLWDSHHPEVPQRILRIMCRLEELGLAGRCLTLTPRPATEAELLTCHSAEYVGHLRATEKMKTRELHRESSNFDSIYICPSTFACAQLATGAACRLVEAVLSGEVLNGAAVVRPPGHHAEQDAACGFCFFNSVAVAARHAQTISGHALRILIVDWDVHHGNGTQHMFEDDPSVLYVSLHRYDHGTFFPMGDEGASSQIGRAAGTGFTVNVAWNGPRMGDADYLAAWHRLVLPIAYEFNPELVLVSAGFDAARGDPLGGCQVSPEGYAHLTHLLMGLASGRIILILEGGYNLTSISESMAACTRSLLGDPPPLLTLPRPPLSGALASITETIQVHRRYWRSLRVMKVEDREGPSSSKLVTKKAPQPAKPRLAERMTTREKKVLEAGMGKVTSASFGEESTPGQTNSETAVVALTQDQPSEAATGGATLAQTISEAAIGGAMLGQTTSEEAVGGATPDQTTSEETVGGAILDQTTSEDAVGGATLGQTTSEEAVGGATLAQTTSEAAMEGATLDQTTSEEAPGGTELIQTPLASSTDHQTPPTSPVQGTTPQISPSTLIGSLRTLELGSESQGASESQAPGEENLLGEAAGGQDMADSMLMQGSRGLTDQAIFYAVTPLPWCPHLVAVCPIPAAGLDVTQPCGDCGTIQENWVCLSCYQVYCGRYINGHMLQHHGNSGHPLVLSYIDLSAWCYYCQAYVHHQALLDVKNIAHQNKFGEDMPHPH

[6] = molecular target: T2, Estrogen receptor; experiment: Antagonist activity at ERalpha in human T47D-KBLuc cells assessed as inhibition of E2-induced transcriptional activity by luciferase reporter gene assay; type: cell-based
[7] = system: MDA-MB-231; experiment: Antiproliferative activity against human MDA-MB-231 cells treated for 48 hrs followed by refreshed every 96 hrs measured on day 10 by Lowry assay; type: functional, cell-based

IC50 [1] [µM] | IC50 [2] [µM] | inhibition [3] | IC50 [4] [µM] | IC50 [5] [µM] | IC50 [6] [µM] | IC50 [7] [µM] | Structure (SMILES)
2.93 | 0.96 | Dose-dependent effect | 0.51 | 1.15 | 1.06 |  | C[C@]12CC[C@@H]3c4ccc(O)cc4C[C@@H](CCCCCCCCCCC(=O)NO)[C@H]3[C@@H]1CC[C@@H]2O
0.34 | 1.55 | Dose-dependent effect | 0.05 | 43.7 | 0.18 | 5.02 | CCCCN(O)C(=O)c1cccc(NC(=O)CCCCCS[C@@H]2Cc3cc(O)ccc3[C@H]3CC[C@]4(C)[C@@H](O)CC[C@H]4[C@@H]32)c1
1.9 | 3.18 | Dose-dependent effect | 0.21 | > 50 | 0.72 |  | C[C@]12CC[C@@H]3c4ccc(O)cc4C[C@@H](CCCCCCCCCCC(=O)Nc4ccccc4N)[C@H]3[C@@H]1CC[C@@H]2O
9.11 | > 5 | Dose-dependent effect | 2.55 | > 50 | 2.1 |  | CCCCN(O)C(=O)CCCCCCCCCC[C@@H]1Cc2cc(O)ccc2[C@H]2CC[C@]3(C)[C@@H](O)CC[C@H]3[C@H]12
0.35 |  |  |  |  |  |  | Nc1ccccc1NC(=O)c1ccc(CNC(=O)OCc2cccnc2)cc1 [ENTINOSTAT]

Structure (SMILES) | IC50 [1] [µM] | IC50 [2] [µM] | inhibition [3] | IC50 [4] [µM] | IC50 [5] [µM] | IC50 [6] [µM] | IC50 [7] [µM]
CC/C(=C(\c1ccc(O)cc1)c1ccc(OCCN(C)C)cc1)c1ccccc1 [AFIMOXIFENE] | 0.15 |  |  |  |  |  | 
CCCCN(C)C(=O)CCCCCCCCCC[C@@H]1Cc2cc(O)ccc2[C@H]2CC[C@]3(C)[C@@H](O)CC[C@H]3[C@H]12 | 0.93 |  |  |  |  |  | 
